How the values were obtained:
HCT 116 cell line = assay: Cell inhibition assay (WST-1 proliferation); format: cell-based; details: Homo sapiens, 120 hrs incubation, read-out: Inhibitor Activity vs HCT 116 cell line
Experimental: Cells were seeded in 96W tissue culture plates (1 well=30 mm^2) at a density of 500 cells per well in 50 μl of the appropriate culture medium (see below). 24 hrs later 50 μl of the compound prepared in the same medium was added as 4 fold dilutions to give final concentrations in the range 0.15 nM-2500 nM (n=6 for each concentration). The plates were then incubated at 37° C., 5% CO2 for 120 hrs. Cell proliferation was assessed using WST-1 (a metabolic indicator dye, Roche Cat no. 1 644 807) according to the manufacturers instructions. The results were calculated as percentage of vehicle response and IC50 values represent the concentration of compound that inhibited the vehicle response by 50%.
HCT-116 Culture Medium—Dulbeccos MEM (Sigma D6546) plus 10% heat inactivated fetal calf serum (Hyclone SH30071 Thermo Fischer Scientific) containing 2 mM Glutamine (Sigma cat no G-7513) and 50 U/ml Penicillin and Streptomycin Sulphate (Sigma Cat no P-0781).

PLK1 = target: T1, PLK1 (Homo sapiens, UniProt P53350); assay: PLK1 enzyme assay (Z'-LYTE, Invitrogen); format: biochemical; details: ATP at or close to Km, 60 minute kinase reaction; read-out: Inhibitor Activity vs PLK1
T1 construct: purchased Invitrogen (Paisley, UK), assay service
T1 sequence (P53350 whole entry): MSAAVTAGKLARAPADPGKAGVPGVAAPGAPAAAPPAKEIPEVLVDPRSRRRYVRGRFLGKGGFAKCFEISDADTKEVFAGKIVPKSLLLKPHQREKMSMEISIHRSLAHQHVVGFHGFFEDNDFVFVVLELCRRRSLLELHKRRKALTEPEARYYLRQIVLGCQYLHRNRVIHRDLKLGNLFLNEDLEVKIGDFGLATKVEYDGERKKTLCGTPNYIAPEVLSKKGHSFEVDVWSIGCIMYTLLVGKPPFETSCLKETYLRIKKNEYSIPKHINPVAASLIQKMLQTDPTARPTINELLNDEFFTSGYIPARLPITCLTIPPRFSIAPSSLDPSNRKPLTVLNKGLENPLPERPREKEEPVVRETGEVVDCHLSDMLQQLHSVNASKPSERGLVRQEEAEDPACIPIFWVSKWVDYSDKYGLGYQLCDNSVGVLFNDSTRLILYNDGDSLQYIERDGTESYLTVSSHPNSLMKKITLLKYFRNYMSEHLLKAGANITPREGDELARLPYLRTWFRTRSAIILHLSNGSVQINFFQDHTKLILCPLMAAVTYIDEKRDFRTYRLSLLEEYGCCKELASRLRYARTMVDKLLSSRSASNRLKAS
Experimental: The ability of compounds to inhibit PLK-1 kinase activity was measured in an assay performed by Invitrogen (Paisley, UK). The Z′-LYTE™ biochemical assay employs a fluorescence-based, coupled-enzyme format and is based on the differential sensitivity of phosphorylated and non-phosphorylated peptides to proteolytic cleavage. The peptide substrate is labelled with two fluorophores—one at each end—that make up a FRET pair. In the primary reaction, the kinase transfers the gamma-phosphate of ATP to a single serine or threonine residue in a synthetic FRET-peptide. In the secondary reaction, a site-specific protease recognizes and cleaves non-phosphorylated FRET-peptides. Phosphorylation of FRET-peptides suppresses cleavage by the Development Reagent. Cleavage disrupts FRET between the donor (i.e., coumarin) and acceptor (i.e., fluorescein) fluorophores on the FRET-peptide, whereas uncleaved, phosphorylated FRET-peptides maintain FRET. A […] method, which calculates the ratio (the Emission Ratio) of donor emission to acceptor emission after excitation of the donor fluorophore at 400 nm, is used to quantitate reaction progress.
The final 10 μl Kinase Reaction consists of 2.8-25.3 ng PLK1, 2 μM Ser/Thr 16 Peptide substrate and ATP in 50 mM HEPES pH 7.5, 0.01% BRIJ-35, 10 mM MgCl2, 1 mM EGTA. The assay is performed at an ATP concentration at, or close to, the Km. After the 60 minute Kinase Reaction incubation at room temperature, 5 μl of a 1:8 dilution of Development Reagent is added. The assay plate is incubated for a further 60 minutes at room temperature and read on a fluorescence plate reader.
Duplicate data points are generated from a ⅓ log dilution series of a stock solution of test compound in DMSO. Nine dilutions steps are made from a top concentration of 10 μM, and a “no compound” blank is included. Data is collected and analysed using XLfit software from IDBS. The dose response curve is curve fitted to model number 205 (sigmoidal dose-response model). From the curve generated, the concentration giving 50% inhibition is determined and reported.

| Structure (SMILES) | IC50 (HCT 116 cell line) [nM] | IC50 (PLK1) [nM] |
| --- | --- | --- |
| CC[C@@H]1C(=O)N(C)c2cnc(Nc3ccc(C(=O)NC4CCN(CCCC(=O)N[C@@H](C(=O)OC5CCCC5)C5CCCCC5)CC4)cc3OC)nc2N1C1CCCC1 [Example 5, Cyclopentyl (2R)-cyclohexyl [(4-{4-[(4-{[(7R)-8-cyclopentyl-7-ethyl-5-methyl-6-oxo-5,6,7,8-tetrahydropteridin-2-yl]amino}-3-methoxybenzoyl)amino]piperidin-1-yl}butanoyl)amino]acetate] | > 500 | 100 to 500 |
| CC[C@@H]1C(=O)N(C)c2cnc(Nc3ccc(C(=O)NC4CCN(CCCCC(=O)N[C@@H](CC(C)C)C(=O)OC5CCCC5)CC4)cc3OC)nc2N1C1CCCC1 [Example 6, Cyclopentyl N-(5-{4-[(4-{[(7R)-8-cyclopentyl-7-ethyl-5-methyl-6-oxo-5,6,7,8-tetrahydropteridin-2-yl]amino}-3-methoxybenzoyl)amino]piperidin-1-yl}pentanoyl)-L-leucinate] | < 100 | < 100 |
| CC[C@@H]1C(=O)N(C)c2cnc(Nc3ccc(C(=O)NC4CCN(CC(=O)N[C@@H](CC(C)C)C(=O)OC5CCCC5)CC4)cc3OC)nc2N1C1CCCC1 [Example 7, Cyclopentyl N-({4-[(4-{[(7R)-8-cyclopentyl-7-ethyl-5-methyl-6-oxo-5,6,7,8-tetrahydropteridin-2-yl]amino}-3-methoxybenzoyl)amino]piperidin-1-yl}acetyl)-L-leucinate] | < 100 | 100 to 500 |
| CC[C@@H]1C(=O)N(C)c2cnc(Nc3ccc(C(=O)NC4CCN(CCNC(=O)N[C@@H](CC(C)C)C(=O)OC5CCCC5)CC4)cc3OC)nc2N1C1CCCC1 [Example 8, Cyclopentyl N-[(2-{4-[(4-{[(7R)-8-cyclopentyl-7-ethyl-5-methyl-6-oxo-5,6,7,8-tetrahydropteridin-2-yl]amino}-3-methoxybenzoyl)amino]piperidin-1-yl}ethyl)carbamoyl]-L-leucinate] | < 100 | < 100 |
| CC[C@@H]1C(=O)N(C)c2cnc(Nc3ccc(C(=O)NC4CCN(CCNC(=O)N[C@H](C(=O)OC5CCCC5)c5ccccc5)CC4)cc3OC)nc2N1C1CCCC1 [Example 9, Cyclopentyl (2S)-{[(2-{4-[(4-{[(7R)-8-cyclopentyl-7-ethyl-5-methyl-6-oxo-5,6,7,8-tetrahydropteridin-2-yl]amino}-3-methoxybenzoyl)amino]piperidin-1-yl}ethyl)carbamoyl]amino}(phenyl)acetate] | < 100 | < 100 |
| CC[C@@H]1C(=O)N(C)c2cnc(Nc3ccc(C(=O)NC4CCN(CCNC(=O)N[C@H](C(=O)OC5CCCC5)C5CCCCC5)CC4)cc3OC)nc2N1C1CCCC1 [Example 10, Cyclopentyl (2S)-cyclohexyl{[(2-{4-[(4-{[(7R)-8-cyclopentyl-7-ethyl-5-methyl-6-oxo-5,6,7,8-tetrahydropteridin-2-yl]amino}-3-methoxybenzoyl)amino]piperidin-1-yl}ethyl)carbamoyl]amino}acetate] | < 100 | 100 to 500 |
| CC[C@@H]1C(=O)N(C)c2cnc(Nc3ccc(C(=O)NC4CCN(CCOC(=O)N[C@@H](CC(C)C)C(=O)OC5CCCC5)CC4)cc3OC)nc2N1C1CCCC1 [Example 11, Cyclopentyl N-[(2-{4-[(4-{[(7R)-8-cyclopentyl-7-ethyl-5-methyl-6-oxo-5,6,7,8-tetrahydropteridin-2-yl]amino}-3-methoxybenzoyl)amino]piperidin-1-yl}ethoxy)carbonyl]-L-leucinate] | < 100 | < 100 |
| CC[C@@H]1C(=O)N(C)c2cnc(Nc3ccc(C(=O)Nc4ccc(CCCC(=O)N[C@@H](CC(C)C)C(=O)OC5CCCC5)cc4)cc3OC)nc2N1C1CCCC1 [Example 12, Cyclopentyl N-(4-{4-[(4-{[(7R)-8-cyclopentyl-7-ethyl-5-methyl-6-oxo-5,6,7,8-tetrahydropteridin-2-yl]amino}-3-methoxybenzoyl)amino]phenyl}butanoyl)-L-leucinate] | < 100 | 100 to 500 |
| CC[C@@H]1C(=O)N(C)c2cnc(Nc3ccc(C(=O)NCCCC(=O)N[C@@H](CC(C)C)C(=O)OC4CCCC4)cc3OC)nc2N1C1CCCC1 [Example 13, Cyclopentyl N-{4-[(4-{[(7R)-8-cyclopentyl-7-ethyl-5-methyl-6-oxo-5,6,7,8-tetrahydropteridin-2-yl]amino}-3-methoxybenzoyl)amino]butanoyl}-L-leucinate] | 100 to 500 | 100 to 500 |
| CC[C@@H]1C(=O)N(C)c2cnc(Nc3ccc(/C=C/CCCC(=O)N[C@@H](CC(C)C)C(=O)OC4CCCC4)cc3F)nc2N1C1CCCC1 [Example 14, Cyclopentyl N-[(5E)-6-(4-{[(7R)-8-cyclopentyl-7-ethyl-5-methyl-6-oxo-5,6,7,8-tetrahydropteridin-2-yl]amino}-3-fluorophenyl)hex-5-enoyl]-L-leucinate] | > 500 | 100 to 500 |
| CC[C@@H]1C(=O)N(C)c2cnc(Nc3ccc(CCCCCC(=O)N[C@@H](CC(C)C)C(=O)OC4CCCC4)cc3F)nc2N1C1CCCC1 [Example 15, Cyclopentyl N-[6-(4-{[(7R)-8-cyclopentyl-7-ethyl-5-methyl-6-oxo-5,6,7,8-tetrahydropteridin-2-yl]amino}-3-fluorophenyl)hexanoyl]-L-leucinate] | > 500 | > 500 |
| CC[C@@H]1C(=O)N(C)c2cnc(Nc3c(F)cc(/C=C/CCCC(=O)N[C@@H](CC(C)C)C(=O)OC4CCCC4)cc3F)nc2N1C1CCCC1 [Example 16, Cyclopentyl N-[(5E)-6-(4-{[(7R)-8-cyclopentyl-7-ethyl-5-methyl-6-oxo-5,6,7,8-tetrahydropteridin-2-yl]amino}-3,5-difluorophenyl)hex-5-enoyl]-L-leucinate] | > 500 | 100 to 500 |
| CC[C@@H]1C(=O)N(C)c2cnc(Nc3ccc(C(=O)N[C@H]4CC[C@@H](CCC(=O)N[C@@H](CC(C)C)C(=O)OC5CCCC5)CC4)cc3OC)nc2N1C1CCCC1 [Example 17, Cyclopentyl N-(3-{cis-4-[(4-{[(7R)-8-cyclopentyl-7-ethyl-5-methyl-6-oxo-5,6,7,8-tetrahydropteridin-2-yl]amino}-3-methoxybenzoyl)amino]cyclohexyl}propanoyl)-L-leucinate] | < 100 | < 100 |
